PubChem BioAssay (NCI)
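Interpolation was linear, between the two tested concentrations surrounding the appropriate level; five concentrations were tested over 48 hours in 96-well plates. TGI marks complete inhibition of growth.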

Columns and labels:
Experiment in all cases: inhibition of tumour cell growth, NCI panel, 48 h
MDA-N = tested on: MDA-N
MCF7 breast = tested on: MCF7 breast
SK-OV-3 ovarian = tested on: SK-OV-3 ovarian
T-47D breast = tested on: T-47D breast
EKVX NSCLC = tested on: EKVX NSCLC
HCT-116 colon = tested on: HCT-116 colon
SF-268 CNS = tested on: SF-268 CNS
OVCAR-5 ovarian = tested on: OVCAR-5 ovarian
SNB-75 CNS = tested on: SNB-75 CNS
PC-3 prostate = tested on: PC-3 prostate

| Compound | TGI (MDA-N) | TGI (MCF7 breast) | TGI (SK-OV-3 ovarian) | TGI (T-47D breast) | TGI (EKVX NSCLC) | TGI (HCT-116 colon) | TGI (SF-268 CNS) | TGI (OVCAR-5 ovarian) | TGI (SNB-75 CNS) | TGI (PC-3 prostate) |
| --- | --- | --- | --- | --- | --- | --- | --- | --- | --- | --- |
| COc1ccc(N2C(=O)C3c4[nH]c5ccc(F)cc5c4C4CCC(c5ccccc5)CC4C3C2=O)cc1 (configuration not stated) | > 100 µM | > 100 µM | 49.5 µM | > 100 µM | 63 µM | > 100 µM | 20.3 µM | 47.8 µM | 31.6 µM | 35.2 µM |
| NNC(=O)c1nnn(CCc2ccccc2)c1C(=O)NN | > 100 µM | > 100 µM | – | – | > 100 µM | > 100 µM | – | > 100 µM | – | > 100 µM |
| CCOC(=O)CC(=O)Nc1cccc2[nH]cnc12 | > 100 µM | > 100 µM | > 100 µM | > 100 µM | > 100 µM | > 100 µM | > 100 µM | > 100 µM | 98.1 µM | > 100 µM |
| N#Cc1c(-c2ccccc2)[nH]c(=O)n(C2OC(CO)C(O)C(O)C2O)c1=O (configuration not stated) | – | > 100 µM | > 100 µM | > 100 µM | > 100 µM | > 100 µM | > 100 µM | > 100 µM | > 100 µM | > 100 µM |
| O=c1[nH]nc(Cc2ccccc2)n1CCO | > 100 µM | > 100 µM | > 100 µM | > 100 µM | > 100 µM | > 100 µM | > 100 µM | > 100 µM | – | > 100 µM |
| C=C1C(=O)O[C@@H]2C=C(C)C3=CC(=O)[C@](C)(C[C@H](OC(=O)/C(C)=C\C)[C@@H]12)O3 | 1.49 µM | 1.63 µM | 16.8 µM | 3.81 µM | 8.78 µM | 0.868 µM | – | 3.86 µM | 26.3 µM | 5.01 µM |
| COC(=O)[C@H](Cc1c[nH]c2ccccc12)NC(=O)c1ccc(CNC(=O)/C=C/c2cccc(Oc3ccccc3)c2)cc1 | 23.9 µM | > 100 µM | > 100 µM | > 100 µM | > 100 µM | > 100 µM | > 100 µM | > 100 µM | > 100 µM | > 100 µM |
| NC1=CN2c3ccccc3N(CC(=O)O)C2C=C1 (configuration not stated) | – | > 100 µM | > 100 µM | > 100 µM | > 100 µM | > 100 µM | > 100 µM | > 100 µM | > 100 µM | > 100 µM |
| N#Cc1c(-c2ccccc2)c(N=Nc2ccc(Cl)cc2)c(=O)n2c1[nH]c1ccccc12 | > 100 µM | > 100 µM | > 100 µM | > 100 µM | > 100 µM | > 100 µM | > 100 µM | > 100 µM | > 100 µM | > 100 µM |
| COc1ccc(N2C=Nn3c(nc4sc5c(c4c3=O)CCCC5)C2)cc1 | > 100 µM | > 100 µM | > 100 µM | > 100 µM | > 100 µM | > 100 µM | > 100 µM | > 100 µM | > 100 µM | > 100 µM |
| Cc1ccc(/C(O)=C/c2nc3ccccc3s/c2=N/CS(=O)(=O)c2ccc(C)cc2)cc1 | > 10 µM | > 10 µM | > 10 µM | > 10 µM | – | > 10 µM | > 10 µM | > 10 µM | > 10 µM | > 10 µM |
| O=C1CCCCCCCCCCC1CN1CCCCC1 (configuration not stated) | – | – | – | – | > 100 µM | > 100 µM | > 100 µM | > 100 µM | > 100 µM | – |
| CCOP(=O)(OCC)C(N)c1ccc(Cl)cc1 (configuration not stated) | > 100 µM | > 100 µM | – | > 100 µM | > 100 µM | > 100 µM | > 100 µM | > 100 µM | – | > 100 µM |
| CC1=NN(c2nc(N)nc(CC#N)n2)C(C)(C)C1 | – | > 100 µM | > 100 µM | > 100 µM | > 100 µM | > 100 µM | > 100 µM | – | > 100 µM | > 100 µM |
| CC(C)(C)C(=O)OC12/C(=N/O)CCCCCC1c1ccccc12 (configuration not stated) | – | – | 33.6 µM | – | – | 27.5 µM | 32.4 µM | 28.7 µM | 27.8 µM | – |
| Clc1ccc(C(SCc2ccccc2)SCc2ccccc2)cc1 | > 10 µM | > 10 µM | > 10 µM | > 10 µM | > 10 µM | > 10 µM | > 10 µM | – | > 10 µM | > 10 µM |
| CCOC(=O)c1sc2[n+](c1C)C(=O)/C(=C/c1ccc([N+](=O)[O-])cc1)S2 | 66.9 µM | 62.6 µM | 64.6 µM | 77.2 µM | – | 54.7 µM | 47.3 µM | > 100 µM | 49.7 µM | 57.4 µM |
| COc1c(O)cc2c(c1O)C(=O)/C(=C/c1ccc(O)cc1)CO2 | > 100 µM | > 100 µM | 59.3 µM | 94.8 µM | 71.9 µM | – | > 100 µM | 68.6 µM | 57 µM | > 100 µM |
| Nc1ccc(C(=O)c2cn(CCN3CCOCC3)c3ccccc23)c2ccccc12 | > 100 µM | > 100 µM | > 100 µM | 72.8 µM | 90.8 µM | > 100 µM | > 100 µM | > 100 µM | – | > 100 µM |
| COC(C)(C)C1(O)CCC(C)CC1=O (configuration not stated) | > 100 µM | – | > 100 µM | – | > 100 µM | > 100 µM | > 100 µM | > 100 µM | > 100 µM | > 100 µM |
| Cc1cc(=O)oc2c(C)c(OCCCOc3ccc4c(C)cc(=O)oc4c3C)ccc12 | – | – | > 100 µM | – | > 100 µM | > 100 µM | > 100 µM | > 100 µM | – | – |
| S=C(c1c[nH]c2ccccc12)N1CCN(Cc2ccccc2)CC1 | 29.7 µM | 46.7 µM | 51.4 µM | – | 41.8 µM | 29.1 µM | 35.6 µM | 30.5 µM | 37 µM | 30.8 µM |
| CCNC(=O)c1c(O)c2ccccc2[nH]c1=O | > 100 µM | > 100 µM | – | – | > 100 µM | > 100 µM | > 100 µM | > 100 µM | > 100 µM | > 100 µM |
| O=CC12C3CCC1C2C(=O)C3 (configuration not stated) | > 100 µM | > 100 µM | > 100 µM | – | > 100 µM | > 100 µM | > 100 µM | > 100 µM | > 100 µM | > 100 µM |
